# In article PMC8595825 (Journal of medicinal chemistry, 2021):
# Tests used:
# M. bovis BCG [1] = type: cell-based, Mycobacterium bovis BCG
# [2] = system: reactive oxygen species (ROS) in M. bovis BCG; type: cell-based, Mycobacterium bovis BCG; settings: for ROS levels at higher dose: 2× MIC90; for dose-dependent ROS production: 0.25×–2× MIC90, 90 min
# pfurA promoter = type: cell-based, Mycobacterium bovis BCG; settings: 0.5× to 2× MIC90, 24 h
# piniBAC promoter = type: cell-based, Mycobacterium bovis BCG; settings: 0.4–25 μM, 24 h
# [3] = system: M. bovis BCG katG mutant strain; type: cell-based, Mycobacterium bovis BCG
# [4] = In vivo pharmacokinetics in mice; settings: mouse; for bioavailability: po, 50 mg/kg
# mini-Ames test = type: cell-based
# [5] = Metabolic stability in rat microsomes; type: in vitro ADME
# [6] = system: nutrient-starved M. tuberculosis H37Rv; assay: Loebel model, nutrient-starved nonreplicating cultures; type: cell-based, Mycobacterium tuberculosis H37Rv; settings: 40× MIC90 (64 μM); 7 days
# [7] = system: Vero (African Green Monkey kidney epithelial cells); assay: Cytotoxicity against mammalian Vero cells; type: cell-based; settings: IC50 Vero/MIC50 Mtb
# [8] = system: M. bovis BCG cell membrane; type: cell-based, Mycobacterium bovis BCG; settings: 4× MIC90 (1.2 μM); for membrane depolarizing effect: after 8 h of exposure; for time at which red/green fluorescence ratio significantly decreased: coincided with onset of cell death
# [9] = system: M. bovis BCG cell membrane; settings: for membrane permeabilizing effect: 4× MIC90, after 8 h of exposure; for time at which permeabilization was observed: 4× MIC90, attributed to onset of cell death
# M. bovis BCG [10] = type: cell-based, Mycobacterium bovis BCG; remark: listed apart in the source
# M. bovis BCG [11] = type: cell-based, Mycobacterium bovis BCG; settings: 32 at its MIC90 + vitamin C 2.5 mM, 5 days
# M. smegmatis IMVs = assay: Transmembrane pH gradient dissipation in IMVs; type: biochemical; settings: 1 and 2 μM
# [12] = system: M. smegmatis mc^2155 IMVs; assay: Oxygen consumption and hydrogen peroxide production by IMVs; type: biochemical
# [13] = target: NDH2 in IMVs of M. smegmatis mc^2155 (Mycolicibacterium smegmatis, UniProt A0QYD6); assay: NADH oxidation in inverted membrane vesicles; type: biochemical; settings: KCN, 20 mM
# Sequence of NDH2 in IMVs of M. smegmatis mc^2155 (A0QYD6 1-457): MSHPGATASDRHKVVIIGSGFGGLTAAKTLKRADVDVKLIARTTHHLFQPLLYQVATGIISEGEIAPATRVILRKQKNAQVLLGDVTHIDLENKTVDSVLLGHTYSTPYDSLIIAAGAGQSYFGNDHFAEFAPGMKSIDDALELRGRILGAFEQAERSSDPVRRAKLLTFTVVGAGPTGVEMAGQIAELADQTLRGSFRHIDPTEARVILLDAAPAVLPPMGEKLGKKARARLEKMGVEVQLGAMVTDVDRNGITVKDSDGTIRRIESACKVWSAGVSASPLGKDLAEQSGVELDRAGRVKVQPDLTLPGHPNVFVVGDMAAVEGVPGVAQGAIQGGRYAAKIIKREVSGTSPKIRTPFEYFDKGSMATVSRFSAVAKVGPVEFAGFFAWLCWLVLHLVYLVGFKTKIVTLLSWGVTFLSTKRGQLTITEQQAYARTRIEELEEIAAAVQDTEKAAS
# M. bovis BCG [14] = type: cell-based, Mycobacterium bovis BCG; settings: N-acetylcysteine, TEMPO, thiourea
compound,measurement,setting,value
CCCCCCCC[n+]1c2c(n(CC(C)C)c1C)C(=O)c1ccccc1C2=O.[Br-] [compound 35],pMIC90,M. bovis BCG [1],> 0.5
CCCCCCn1c(C)nc2c1C(=O)c1ccccc1C2=O [compound 72],ROS levels at higher dose,[2],increased ROS levels but not to the levels induced by the actives at comparable doses
same,pfurA activation (fluorescence),pfurA promoter,less evident
CCCCn1c2c([n+](C3CCC4(CCCCC4)CC3)c1C)C(=O)c1ccccc1C2=O.[Br-] [compound 61],dose-dependent ROS production,[2],duly observed
same,piniBAC promoter activity (fluorescence),piniBAC promoter,no increase in fluorescence
same,activity against katG mutant strain,[3],a shift to lower MICs was not evident
same,Vd,[4],27 to 35 L/kg
same,clearance,[4],2.28 to 3.3 L/h/kg
same,half-life,[4],7 to 10 h
same,bioavailability,[4],1 to 2%
same,"mutagenicity, mini-Ames test",mini-Ames test,not mutagenic
same,half-life,[5],0.333 to 0.383 h
same,pfurA activation (fluorescence),pfurA promoter,induced dose-dependent increases in fluorescence
CCCCCC[n+]1c2c(n(CC(C)C)c1C)C(=O)c1ccccc1C2=O.[Br-] [compound 34],pMIC90,M. bovis BCG [1],> 0.5
CCCCCCCn1c2c([n+](CCCCC)c1C)C(=O)c1ccccc1C2=O.[Br-] [compound 48],"bactericidal effect, Loebel model",[6],substantially reduced CFUs to levels equivalent to or below the detection limit
same,SI (selectivity index),[7],> 25
same,dose-dependent ROS production,[2],duly observed
same,piniBAC promoter activity (fluorescence),piniBAC promoter,no increase in fluorescence
same,membrane depolarizing effect,[8],Neither compound induced depolarizing or permeabilizing effects
same,time at which red/green fluorescence ratio significantly decreased,[8],24 h
same,pMIC90,M. bovis BCG [1],> 0.5
same,membrane permeabilizing effect,[9],Neither compound induced depolarizing or permeabilizing effects
same,time at which permeabilization was observed,[9],48 h
same,pfurA activation (fluorescence),pfurA promoter,induced dose-dependent increases in fluorescence
CCCCCCn1c2c([n+](CCCCCC)c1C)C(=O)c1ccccc1C2=O.[Br-] [compound 50],pMIC90,M. bovis BCG [1],> 0.5
CCCCCCCCn1c(C)nc2c1C(=O)c1ccccc1C2=O [compound 73],ROS levels at higher dose,[2],increased ROS levels but not to the levels induced by the actives at comparable doses
same,pfurA activation (fluorescence),pfurA promoter,less evident
CCCCCCCCn1c2c([n+](CCCC)c1C)C(=O)c1ccccc1C2=O.[Br-] [compound 32],time-kill outcome,"M. bovis BCG [10]; 8× MIC90, 28 days",CFUs were not detected from day 21 onward
same,Log10 CFU counts with vitamin C added,M. bovis BCG [11],nearly halved
same,"bactericidal effect, Loebel model",[6],substantially reduced CFUs to levels equivalent to or below the detection limit
same,SI (selectivity index),[7],> 25
same,dose-dependent ROS production,[2],duly observed
same,piniBAC promoter activity (fluorescence),piniBAC promoter,no increase in fluorescence
same,protonophore activity (pH gradient dissipation),M. smegmatis IMVs,only moderate rates of pH gradient dissipation
same,membrane depolarizing effect,[8],Neither compound induced depolarizing or permeabilizing effects
same,time at which red/green fluorescence ratio significantly decreased,[8],48 h
same,pMIC90,M. bovis BCG [1],> 0.5
same,oxygen consumption in IMVs energized by NADH compared to malate,[12],~ 1.8 fold
same,Vd,[4],27 to 35 L/kg
same,clearance,[4],2.28 to 3.3 L/h/kg
same,half-life,[4],7 to 10 h
same,bioavailability,[4],1 to 2%
same,"mutagenicity, mini-Ames test",mini-Ames test,not mutagenic
same,stimulation of NADH oxidation with cyanide,[13],retained the ability to stimulate NADH oxidation
same,effect of antioxidants on growth inhibitory MIC BCG,M. bovis BCG [14],did not diminish the growth inhibitory potency
same,half-life,[5],0.333 to 0.383 h
same,membrane permeabilizing effect,[9],Neither compound induced depolarizing or permeabilizing effects
same,time at which permeabilization was observed,[9],24 h
same,pfurA activation (fluorescence),pfurA promoter,induced dose-dependent increases in fluorescence
"NNC(=O)c1ccncc1 [isoniazid, reference compound]","time-kill outcome, colony growth by Day 28",M. bovis BCG [10]; 4× MIC90 (12.8 μM),comparable to the drug-free cultures
same,piniBAC promoter activity (fluorescence),piniBAC promoter,duly increased piniBAC promoter activity
same,activity against katG mutant strain,[3],inactive against the mutant strain
